A short description of assay [1]: Binding affinity to synthetic 3'-biotin-labelled pre-miR-21 RNA by ELISA. (In general: ELISA stands for enzyme-linked immunosorbent assay.)
Assay [2] can be described thus: Binding affinity to synthetic 3'-biotin-labelled mirrored pre-miR-21 RNA by ELISA.
Assay [3] can be described thus: Binding affinity to synthetic 3'-biotin-labelled pre-miR-21 RNA assessed as inhibition of human recombinant Dicer-mediated pre-miR-21 processing by measuring reduction in mature miR-21 formation pretreated for 30 mins followed by dicer addition after 2 hrs by SYBR staining based PAGE analysis.

This note sets out measurements from ChEMBL document CHEMBL3997793, “Discovery of peptidic miR-21 processing inhibitor by mirror image phage display: A novel method to generate RNA binding D-peptides” (Bioorg Med Chem Lett, 2017).

Each structure is given as a SMILES string.

As to `CC(C)[C@H](NC(=O)[C@H](C)NC(=O)[C@H](CCCNC(=N)N)NC(=O)[C@@H]1CSSC[C@H](NC(=O)[C@H](CCCNC(=N)N)NC(=O)CNC(=O)[C@@H]2CCCN2C(=O)CCCC[C@@H]2SC[C@@H]3NC(=O)N[C@@H]32)C(=O)N[C@@H](CCCCN)C(=O)N2CCC[C@H]2C(=O)N[C@@H](CCCCN)C(=O)N[C@@H](CCCNC(=N)N)C(=O)N[C@@H](CCCNC(=N)N)C(=O)N[C@@H](CCCNC(=N)N)C(=O)N[C@@H](CCCNC(=N)N)C(=O)N[C@@H](C)C(=O)N[C@@H]([C@@H](C)O)C(=O)N1)C(=O)O`, the EC50 in assay [1] came out at 7.4 µM; in assay [2] it was 150 nM.

`CC(C)[C@@H](NC(=O)[C@@H](C)NC(=O)[C@@H](CCCNC(=N)N)NC(=O)[C@H]1CSSC[C@@H](NC(=O)[C@@H](CCCNC(=N)N)NC(=O)CNC(=O)[C@H]2CCCN2C(=O)CCCC[C@@H]2SC[C@@H]3NC(=O)N[C@@H]32)C(=O)N[C@H](CCCCN)C(=O)N2CCC[C@@H]2C(=O)N[C@H](CCCCN)C(=O)N[C@H](CCCNC(=N)N)C(=O)N[C@H](CCCNC(=N)N)C(=O)N[C@H](CCCNC(=N)N)C(=O)N[C@H](CCCNC(=N)N)C(=O)N[C@H](C)C(=O)N[C@H]([C@H](C)O)C(=O)N1)C(=O)O`: the EC50 in assay [1] is 0.44 µM; in assay [2], 1600 nM. In addition, the IC50 in assay [3] came out at 540 nM.

One may read the EC50 as the concentration at which the effect is half-maximal. Broadly, the IC50 is the point on the concentration scale where inhibition reaches its midpoint.
